Assay results reported in the NIST ThermoML archive (doi:10.1016/j.jct.2008.07.005).
± gives the expanded uncertainty stated by the source.

How the values were obtained:
[1] = xn = mol fraction of the nth substance listed; details: 283.15 K; 98.93 kPa; Liquid; x2 = 0

| SMILES | mass density [1] [kg/m3] | mass density (283.15 K, 101.33 kPa, Liquid) [kg/m3] | mass density (288.15 K, 101.33 kPa, Liquid) [kg/m3] | mass density (293.15 K, 101.33 kPa, Liquid) [kg/m3] | mass density (298.15 K, 101.33 kPa, Liquid) [kg/m3] | mass density (303.15 K, 101.33 kPa, Liquid) [kg/m3] | mass density (308.15 K, 101.33 kPa, Liquid) [kg/m3] | further results |
| --- | --- | --- | --- | --- | --- | --- | --- | --- |
| O [water] + OCCCO | 999.7 ± 1.3 | – | – | – | – | – | – | – |
| O [water] + CC(O)CO | 999.7 ± 1.3 | – | – | – | – | – | – | – |
| O [water] | – | – | – | – | – | – | – | mass density (283.15 K, 98.93 kPa, Liquid): 999.7 ± 1.3 kg/m3 |
| O [water] + OCC(O)CO | 999.7 ± 1.3 | – | – | – | – | – | – | – |
| OCCCO [propan-1,3-diol] | – | 1056.92 ± 1.7 | 1055.67 ± 1.6 | 1053.64 ± 1.6 | 1050.37 ± 1.7 | 1047.58 ± 1.7 | 1044.25 ± 1.8 | – |
| CCCO [propan-1-ol] | – | 811.34 ± 1.2 | 807.51 ± 1.1 | 803.65 ± 1.1 | 799.67 ± 1.1 | 795.95 ± 1.2 | 791.57 ± 1.2 | – |
| OCC(O)CO [glycerol] | – | – | – | – | – | – | – | mass density (283.15 K, 101.33 kPa, Metastable liquid): 1266.31 ± 2.2 kg/m3; mass density (288.15 K, 101.33 kPa, Metastable liquid): 1264.39 ± 2.1 kg/m3; mass density (293.15 K, 101.33 kPa, Metastable liquid): 1262.53 ± 2.1 kg/m3; mass density (298.15 K, 101.33 kPa, Metastable liquid): 1258.73 ± 2.1 kg/m3; mass density (303.15 K, 101.33 kPa, Metastable liquid): 1254.9 ± 2.2 kg/m3; mass density (308.15 K, 101.33 kPa, Metastable liquid): 1252.65 ± 2.2 kg/m3 |
| CC(O)CO (centres undefined) [1,2-propanediol] | – | 1043.32 ± 1.5 | 1040.45 ± 1.5 | 1036.15 ± 1.4 | 1032.71 ± 1.5 | 1029.62 ± 1.5 | 1025.13 ± 1.6 | – |
| O [water] + CCCO | 999.69 ± 1.3 | – | – | – | – | – | – | – |
